# Source: patent publication US10532066B2, “Surfactant lipids, compositions thereof, and uses thereof” (National Jewish Health, priority 2007, dated 2020)
# How the values were obtained:
# [1] = target: T1, human CD14 (Homo sapiens, UniProt P08571); assay: CD14 binding to solid phase phospholipids (ELISA); details: for direct binding of CD14 to molecular species of PG: CD14 1 μg/ml, POPG = 100%; for binding of CD14 to solid phase lipid: varying CD14, 37° C. 1 h
# T1 construct: purchased Cell Sciences Inc. (Canton, Mass.)
# T1 sequence (P08571 20-345): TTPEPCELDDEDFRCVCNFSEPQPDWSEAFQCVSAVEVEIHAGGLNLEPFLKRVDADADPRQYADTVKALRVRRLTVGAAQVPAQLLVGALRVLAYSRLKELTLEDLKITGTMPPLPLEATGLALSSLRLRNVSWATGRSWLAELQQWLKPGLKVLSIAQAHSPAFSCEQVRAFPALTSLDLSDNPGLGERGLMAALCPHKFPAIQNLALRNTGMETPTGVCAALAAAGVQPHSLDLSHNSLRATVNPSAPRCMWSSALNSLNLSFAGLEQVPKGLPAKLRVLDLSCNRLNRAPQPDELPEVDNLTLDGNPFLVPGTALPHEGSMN
# Protocol: FIG. 12. CD14 binds to solid phase lipids. […] Nonspecific binding was blocked with 20 mM Tris buffer (pH 7.4) containing 0.15 M NaCl, 5 mM CaCl2 (in the upper panel) or 2 mM EGTA (in the lower panel), and 5% (wt/vol) BSA (buffer A).
# FIG. 13. PG Inhibits CD14 binding to solid phase LPS. (A) Various types of PG were coated onto microtiter plates, and incubated with CD14 (1 μg/ml) at 37° C. for 1 h. […] Types of PG shown on the graph are: dilauroylphosphatidylglycerol (DLPG), dimyristoyl-phosphatidylglycerol (DMPG), dipalmitoylphosphatidylglycerol (DPPG), and 16:0/18:1; palmitoyl-oleoyl-phosphatidylglycerol (POPG). […] The binding of CD14 to LPS was detected using anti-CD14 monoclonal antibody. The ELISA based absorbance of CD14 bound to LPS was defined as 100%.
# The wells were then washed with 20 mM Tris buffer (pH 7.4) containing 0.15 M NaCl and 5 mM CaCl2 or 2 mM EGTA (buffer B), and 1 μg/ml anti-human CD14 IgG or anti-His antibody (50 μl/well) in buffer A was added and incubated overnight at 4° C., followed by the incubation with horseradish peroxidase (HRP)-labeled anti-mouse IgG (1:5000) for 1 h. After washing the wells with buffer B, the peroxidase reaction was finally performed using o-phenylenediamine as a substrate. The binding of CD14 or MD-2 to phospholipids was detected by measuring absorbance at 490 nm.
# [2] = system: differentiated U937 cells; assay: LPS-induced TNF-α secretion by differentiated U937 cells; type: cell-based, human; details: LPS 10 ng/ml, 6 h, liposomes; LPS without phospholipid = 100%
# Protocol: FIG. 1. Anionic phospholipids inhibit inflammatory mediator production induced by LPS. Liposomes composed of sphingomyelin (SM), phosphatidylethanolamine (PE) dipalmitoyl-phosphatidylcholine ((DPPC), phosphatidylserine (PS), palmitoyl-oleoyl-phosphatidylglycerol (POPG) and phosphatidylinositol (PI) were formed by bath-sonication for 30 min at room temperature. LPS (10 ng/ml) and different concentrations of phospholipids were added to monolayer cultures of differentiated U937 cells (A), or primary rat alveolar macrophages (B). At 6 h after stimulation, media were collected and secreted TNF-α levels were determined in U937 cultures. NO production was determined 24 h after stimulating rat alveolar macrophages. LPS stimulation in the absence of phospholipid was set as 100%. […] The average TNF-α production upon LPS stimulation was (8.0±0.54 ng/ml). The average NO production upon LPS stimulation was 12.17±0.27 μM.
# FIG. 2. The inhibitory effect of phosphatidylglycerols on LPS-induced inflammatory mediator production is molecular species specific. PG liposomes were formed by bath-sonication for 30 min at room temperature. LPS (10 ng/ml) and different concentrations of PG were added to monolayer cultures of differentiated U937 cells (A) or rat alveolar macrophages (B). Media TNF-α measurements were performed 6 h after stimulation. Media NO measurements were performed 24 h after stimulation. LPS stimulation without PG was set at 100%. The molecular species of PG shown on the graph are 8:0; dioctanoyl-phosphatidylglycerol, 12:0; dilauroyl-phosphatidylglycerol (DLPG), 14:0; dimyristoyl-phosphatidylglycerol (DMPG), 16:0; dipalmitoyl-phosphatidylglycerol (DPPG), 18:0; distearoyl-phosphatidylglycerol, 16:0/18:1; palmitoyl-oleoyl-phosphatidylglycerol (POPG). […] The average TNF-α production upon LPS stimulation was 11.3±0.7 ng/ml. The average NO production upon LPS stimulation was 10.1±0.6 μM.
# FIG. 3. […] Surfactant lipid (SL) and POPG were dried under nitrogen, and hydrated at 37° C. for 1 h. (A) SL and POPG were mixed in organic solvents prior to drying and hydrating and subsequently liposomes were produced. (B) SL and POPG were made as independent populations of liposomes that were subsequently mixed prior to macrophage treatment. 10 ng/ml of LPS and different concentrations of liposome mixtures were added to monolayer cultures of differentiated U937 cells. 6 h after stimulation, media were collected and TNF-α production was determined. LPS stimulation without phospholipid was set as 100%. […] The average TNF-α production upon LPS stimulation was 7.0±0.2 ng/ml.
# U937 cells were induced to differentiate by treatment with 10 nM phorbol myristate acetate (PMA) for 48 h. The cells (1.3×10^5/well) were placed in 96-well plates and further incubated in the absence of PMA for 24 h in RPMI 1640 medium containing 10% BGS. Rat alveolar macrophages (5×10^5/well) were incubated in 24-well plates for 2 h after isolation. The indicated concentration of phospholipids was added to the cultures 30 min before adding LPS. After LPS addition cultures were incubated for 6 h at 37° C. at an atmosphere of 95% air and 5% CO2. At the end of the incubation period the medium was collected and assayed for TNF-α concentrations using an ELISA kit.
# Surfactant lipids were isolated from the bronchioalveolar lavage of Sprague-Dawley rats, 28 days after intratracheal instillation of 25 mg of silica (˜125 mg/kg). Initially, the surfactant was purified by the method of Hawgood et. al. (25) using NaBr density gradient centrifugation. The purified surfactant was extracted with butanol (26) and segregated into butanol-soluble and -insoluble material.
Compound,direct binding of CD14 to molecular species of PG [1],LPS-induced TNF-α production [2],binding of CD14 relative to the levels of POPG binding ([1]; 1.25 nmole lipid per well),binding of CD14 to solid phase lipid ([1]; 1.25 nmole lipid per well)
"CCCCCCCCCCCCCC(=O)OCC(COP(=O)(O)OCC(O)CO)OC(=O)CCCCCCCCCCCCC (centres unmarked) [DMPG, dimyristoyl-phosphatidylglycerol]",strongest direct binding interactions,as potent as POPG,,
"CCCCCCCCCCCCCCCC(=O)OC[C@H](COP(=O)([O-])OCC[N+](C)(C)C)OC(=O)CCCCCCCCCCCCCCC [DPPC, dipalmitoyl-phosphatidylcholine, reference compound]",,no significant effect,approximately 30%,
"CCCCCCCCCCCCCCCC(=O)OCC(COP(=O)(O)OCC(O)CO)OC(=O)CCCCCCCCCCCCCCC (centres unmarked) [DPPG, dipalmitoyl-phosphatidylglycerol, reference compound]",nearly the same extent as POPG and DMPG,failed to antagonize,,
"CCCCCCCC/C=C\CCCCCCCC(=O)O[C@H](COC(=O)CCCCCCCCCCCCCCC)COP(=O)(O)OCC(O)CO (some centres unmarked) [POPG, palmitoyl-oleoyl-phosphatidylglycerol]",strongest direct binding interactions,significantly attenuated,,strongly bound
phosphatidylinositol [PI],,significantly attenuated,,strongly bound
